In patent US10808041B2, “Lincosamides universal monoclonal antibody hybridoma cell strain and application thereof” (Jiangnan University, priority 2017, dated 2020):

Tested on: lincosamides universal monoclonal antibody secreted by monoclonal cell strain CGMCC No. 14691
Test: indirect competitive ELISA with coating antigen Lin-OVA
Assay type: binding, BALB/c mice
Settings: lincosamides standard substances competing with coating antigen Lin-OVA
Procedure: The specific ELISA procedure was as follows:
Coating: the coating antigen was subjected to gradient dilution with a 0.05 M pH 9.6 carbonate buffer solution, and incubated at 37° C. for 2 h at 100 μL/well.
Washing: a solution in a plate was decanted, and 200 μL of a PBST solution was injected into each well, placed on a shaker to shake for 3 min, spin-dried, and washed 3 times. The following washing method was the same.
Blocking: After patting dry, 200 μL of a blocking buffer was added to each well, and incubated at a temperature of 37° C. for 2 h. After washing, the product was dried to be ready for use.
Color development: the ELISA plate was taken out, and fully washed, and then 100 μL of a color developing solution (the ratio of TMB to a substrate liquid is 1:5) was added to each well to react at a temperature of 37° C. for 15 min in the dark.
Stopping and determination: the ELISA plate was taken out, 50 μL of a stop solution (2 mol/L sulfuric acid) was added to each well to stop the reaction, and then the absorbance A450 of each well was determined by an ELISA reader.

half inhibition concentration (IC50) of the monoclonal antibody | Structure (SMILES)
0.004339 µg/mL | CCC[C@@H]1C[C@@H](C(=O)N[C@@H]([C@H]2O[C@H](SC)[C@H](O)[C@@H](O)[C@H]2O)[C@@H](C)O)N(C)C1 [lincomycin]
0.019314 µg/mL | CC[C@@H]1CCN[C@H](C(=O)N[C@@H]([C@H]2O[C@H](SC)[C@H](O)[C@@H](O)[C@H]2O)[C@H](C)Cl)C1 [pirlimycin]
